Reference: US8076356B2, “Triazolopyridinylsulfanyl derivatives as P38 map kinase inhibitors” (Pfizer Inc., priority 2004, dated 2011)
pIC50: −log10 of the molar value.

Tested on: TNFα release from human peripheral blood mononuclear cells
Test: TNFα screen
Assay type: cell-based
Conditions: LPS-stimulated human peripheral blood mononuclear cells, 18 hours incubation, TNFα in supernatant by ELISA; read-out: TNF IC50
Description: Venous blood is collected from healthy volunteers and the mononuclear cells purified by centrifugation through Histopaque (Ficoll) cushions. TNFα production from these cells is stimulated by addition of lipopolysaccharide. After 18 hours incubation in the presence of LPS, the cell supernatant is removed and the concentration of TNFα in the supernatant determined by ELISA.

| pIC50 | SMILES |
| --- | --- |
| 8.49 | Cc1ccc(-n2nc(C(C)(C)C)cc2NC(=O)NCc2ccccc2Sc2ccc3nnc(-c4ccccc4OCc4ccccc4)n3c2)cc1 [Example 116] |
| 7.80 | CNC(=O)c1ccc(-n2nc(C(C)(C)C)cc2NC(=O)NCc2ccccc2Sc2ccc3nnc(C(C)C)n3c2)cc1 [Example 118] |
| 8.34 | Cc1cc(OCc2ccccc2)cc(-n2nc(C(C)(C)C)cc2NC(=O)NCc2ccccc2Sc2ccc3nnc(C(C)C)n3c2)c1 [Example 124] |
| 7.10 | CSC(C)(C)c1cc(NC(=O)NCc2ccccc2Sc2ccc3nnc(C(C)C)n3c2)n(-c2ccc(OCCO)cc2)n1 [Example 125] |
| 8.43 | CC(C)(C)c1cc(NC(=O)NCc2ccccc2Sc2ccc3nnc(-c4cccc(O)c4Cl)n3c2)n(-c2ccc(F)c(F)c2)n1 [Example 128] |
| 8.35 | CCc1ccccc1-c1nnc2ccc(Sc3ccccc3CNC(=O)Nc3cc(C(C)(C)SC)nn3-c3ccc(O)cc3)cn12 [Example 132] |
| 9.00 | CSC(C)(C)c1cc(NC(=O)NCc2ccccc2Sc2ccc3nnc(C(C)C)n3c2)n(-c2cc(C)cc(C)c2)n1 [Example 136] |
| 8.49 | CC(C)c1ccccc1-c1nnc2ccc(Sc3ccccc3CNC(=O)Nc3cc(C(C)(C)C)nn3-c3ccc(OCCO)cc3)cn12 [Example 139] |
| 8.74 | COc1ccccc1-c1nnc2ccc(Sc3ccccc3CNC(=O)Nc3cc(C(C)(C)SC)nn3-c3ccc(O)cc3)cn12 [Example 140] |
| 8.85 | CC(C)(C)c1cc(NC(=O)NCc2ccccc2Sc2ccc3nnc(-c4ccccc4F)n3c2)n(-c2ccc(OCCO)cc2)n1 [Example 141] |
| 8.66 | CSC(C)(C)c1cc(NC(=O)NCc2ccccc2Sc2ccc3nnc(-c4ccccc4C(C)C)n3c2)n(-c2ccc(O)cc2)n1 [Example 142] |
| 8.92 | COc1ccccc1-c1nnc2ccc(Sc3ccccc3CNC(=O)Nc3cc(C(C)(C)C)nn3-c3ccc(O)cc3)cn12 [Example 143] |
| 8.92 | CC(C)c1ccccc1-c1nnc2ccc(Sc3ccccc3CNC(=O)Nc3cc(C(C)(C)C)nn3-c3ccc(O)cc3)cn12 [Example 144] |
| 9.05 | COc1ccccc1-c1nnc2ccc(Sc3ccccc3CNC(=O)Nc3cc(C(C)(C)C)nn3-c3cccc(O)c3)cn12 [Example 145] |
| 8.85 | CSC(C)(C)c1cc(NC(=O)NCc2ccccc2Sc2ccc3nnc(-c4ccc(C)cc4O)n3c2)n(-c2cccc(C)c2)n1 [Example 151] |
| 8.31 | CSC(C)(C)c1cc(NC(=O)NCc2ccccc2Sc2ccc3nnc(-c4cccc(Cl)c4O)n3c2)n(-c2cccc(C)c2)n1 [Example 152] |
| 8.32 | CSC(C)(C)c1cc(NC(=O)NCc2ccccc2Sc2ccc3nnc(-c4cccc(Cl)c4O)n3c2)n(-c2ccc(C)cc2)n1 [Example 153] |
| 8.82 | CC(C)(C)c1cc(NC(=O)NCc2ccccc2Sc2ccc3nnc(-c4ccccc4SCCO)n3c2)n(-c2cccc(O)c2)n1 [Example 179] |
| 7.68 | CC(C)c1nnc2ccc(Sc3ccccc3CNC(=O)Nc3cc(C(C)(C)C)nn3-c3ccccn3)cn12 [Example 180] |
| 8.57 | CC(C)c1nnc2ccc(Sc3ccccc3CNC(=O)Nc3cc(C(C)(C)C)nn3-c3cccc4cnccc34)cn12 [Example 181] |
| 9.15 | CCC(C)(C)c1cc(NC(=O)NCc2ccccc2Sc2ccc3nnc(-c4ccccc4O)n3c2)n(-c2cccnc2)n1 [Example 182] |

Same assay, conditions: PBMC; LPS-stimulated human peripheral blood mononuclear cells, 18 hours incubation, TNFα in supernatant by ELISA; read-out: TNF IC50

| pIC50 | SMILES |
| --- | --- |
| 8.92 | CSC(C)(C)c1cc(NC(=O)NCc2ccccc2Sc2ccc3nnc(-c4ccccc4F)n3c2)n(-c2ccc(O)cc2)n1 [Example 109, N-(2-{[3-(2-Fluorophenyl)[1,2,4]triazolo[4,3-a]pyridin-6-yl]thio}benzyl)-N′-{1-(4-hydroxyphenyl)-3-[1-methyl-1-(methylthio)ethyl]-1H-pyrazol-5-yl}urea] |
| 8.44 | CSc1ccc(-c2nnc3ccc(Sc4ccccc4CNC(=O)Nc4cc(C(C)(C)C)nn4-c4cccc(O)c4)cn23)cc1 [Example 114, N-[3-tert-Butyl-1-(3-hydroxyphenyl)-1H-pyrazol-5-yl]-N′-[2-({3-[4-(methylthio)phenyl][1,2,4]triazolo[4,3-a]pyridin-6-yl}thio)benzyl]urea] |
